Assays:
[1] = system: BN7005-H1D2 colon cancer cells; assay: Comparison of CA4 and CA4P on BN7005-H1D2 tumor growth, alone or with vaccination (FIG. 5); type: in vivo, rat
Method: FIGS. 5A AND 5B illustrate a comparison of the therapeutic effect of Combretastatin A4 and Combretastatin A4 Prodrug (2 mg/kg) on tumor growth (BN7005-H1D2) in vivo as a sole therapy or in combination with therapeutic vaccination (IL-18 tumor transfectants). Results are represented as mean tumor volume (FIG. 5A) or as median tumor volume (FIG. 5B) 31 days after tumor initiation.
A comparison was also made of relative effect of CA4 and CA4P administration in vivo with regard to tumor inhibitory effects when used as sole therapy and when combined with immunomodulatory gene therapy. […] A subset of these animals were subjected to regular vaccinations autologous IL-18 and IL-12-transfected tumor cells, respectively.
A comparison has been made of the effect of CA4 and CA4 prodrug with regard to tumor inhibitory effects when used as sole therapy and when combined with immunomodulatory gene therapy. As represented in FIG. 5, wild-type (BN7005-H1D2) colon cancer cells were inoculated intrahepatically and treatment with CA4 and CA4P began on day 7 (2 mg/kg 6 days a week), when the tumors were macroscopically visible. On day 9, 16 and 23, vaccinations occurred using BN7005-H1D2 cells transfected with ILI8 and IL-12, respectively.

[2] = Half-life and estimated in vivo concentration of CA4P
Method: The purified adherent cells (6×10^5/microtiter well) were treated in vitro for 3 hours with 0.15 ug/ml CA4P before washing. […] These variables were used to choose an in vitro concentration that is equal to the average concentration in vivo after a 3 hour period. For example, after treatment with 2 mg/kg in vivo, the concentration would be a maximum of 0.18 ug/ml 1.5 hours later, and less than 1 ng/ml after 3 hours.

[3] = system: BN7005-H1D2 colon cancer cells; assay: Tumor growth with IL-18/IFN-γ vaccination plus CA4P and/or L-NAME (FIG. 6); type: in vivo, rat
Method: FIG. 6 illustrates enhancement of the therapeutic effect of vaccination with IL-18/IFN-γ producing tumor transfectant […] cells by concurrent treatment with low dose combretastatin-A4 prodrug and/or L-NAME. Mean tumor volume±SEM is indicated. Significance of differences compared to the PBS control was evaluated by the Student's t test.
Four groups of 6 rats each were inoculated intrahepatically with 1×10^5 wild type colon cancer cells (BN7005-H1D2) on day 0. Drug treatment was initiated on day 7, when the tumor was macroscopically visible as a small nodule, and was repeated 5 days a week. CA4-P was administered i.p. at a dose of 5 mg/kg and L-NAME by gavage at a dose of 48 mg/rat. Vaccination was given twice i.p. on day 10.and 17 with 2×10^6 tumor cells producing IL-18 and IFN-γ, respectively. No drug treatment was given on the day of vaccination and the day after. On day 28 all animals were laparotomized and tumor diameters measured (the longest diameter (a) and the one perpendicular to the first (b) and tumor volume calculated according to the formula 0.4×a×b×b.
Referring to FIG. 6, wild-type (BN7005-H1D2) colon cancer cells were inoculated intrahepatically and combretastatin A4 prodrug treatment began daily on day 7 when the tumors were macroscopically visible. L-NAME, a well known NO inhibitor and effective antitumor agent, was also administered daily. On day 10 and 17 vaccination occurred using BN7005-H1D2 cells transfected with IL-18/IFN-gamma. […] One likely explanation was that both L-NAME and Combretastatin A4 were doing the same thing; i.e. inhibiting the production of proinflammatory cytokines that cause immune suppression.

[4] = cited from earlier work
[5] = system: spleen cells isolated from BN7005-H1D2 tumor-bearing rats; assay: In vitro proliferative response of spleen cells after 20 days of in vivo CA4P at 5 or 2 mg/kg (FIG. 2A); set-up: species or system rat; conditions: 20 days daily treatment, H1D2-WT or IL-18 transfectant stimulator cells
Method: FIG. 2A illustrates the in vitro immune proliferative response of spleen cells isolated from BN7005-H1D2 tumor-bearing rats previously treated with a combination of active immunomodulatory gene therapy (IL-18 and IL-12 transfected tumor cells) and CA4P (5 or 2 mg/kg) in vivo. The cells were stimulated with untransfected (H1D2-WT) tumor cells or IL-18 (H1D2-IL18) transfected tumor cells after 20 days of tumor growth.
Results of in vitro studies indicate that the dose of Combretastatin A4 Prodrug that is administered is critical for obtaining a specific immunological effect. […] Proliferation of spleen immune cells was monitored by 3-H-thymidine incorporation (CPM) after 5 days incubation. […] Eight μm cryosections were examined directly in a fluorescence microscope and vessel volume was determined (Springer, MP., Ip, TK., and Blau, HM). Angiogenesis monitored by perfusion with space-filling microbead suspension (Mol. Ther. 1: 82-87, 2000). […]
In a second experiment represented in FIG. 2A, wild type H1D2-WT or IL-18 transfected (H1D2-IL-18) cells were used as immune stimulants to assess the in vitro proliferative response of spleen cells isolated from tumor-bearing rats previously treated in vivo with 2 or 5 mg/kg combretastatin A4 prodrug for 20 days. The spleen cells were cultured in RPMI medium and their growth monitored by the incorporation of tritiated thymidine into DNA. […]

Compound: COc1ccc(/C=C\c2cc(OC)c(OC)c(OC)c2)cc1OP(=O)([O-])[O-].[Na+].[Na+] [CA4P, CA4 phosphate disodium salt]
- Tumor inhibitory effect ([1]; 2 mg/kg 6 days a week as sole therapy): no significant effect as sole therapy
- Tumor inhibitory effect ([1]; 2 mg/kg combined with vaccination (IL-18 and IL-12 transfected tumor cells)): significant tumor inhibitory effects
- Concentration in extracellular fluid ([2]; 1.5 hours after treatment with 2 mg/kg in vivo, calculated from half-life and extracellular fluid 16.6% of body weight): ≤ 180 ng/mL
- Concentration in extracellular fluid ([2]; 3 hours after treatment with 2 mg/kg in vivo, calculated): less than 1 ng/ml
- Enhancement by combining L-NAME with combretastatin A4 prodrug ([3]; CA4-P 5 mg/kg + L-NAME 48 mg/rat + vaccination): only a small enhancement
- Tumor growth compared to the PBS group ([3]; CA4P 5 mg/kg i.p. + vaccination with IL-18/IFN-γ producing tumor cells, day 28): inhibited the tumor growth significantly
- Solubility in water [4]: readily soluble in water
- Proliferative response of spleen cells (3-H-thymidine incorporation) ([5]; CA4P 2 mg/kg): particularly effective in enhancing the anti-tumor immune response
- Proliferative response of spleen cells (3-H-thymidine incorporation) ([5]; CA4P 5 mg/kg): some enhancement of a proliferative response
